In patent US4057530A, “2-Phenyl-indole derivatives and process for preparing the same” (priority 1974, dated 1977):
Where “and” joins values, the source holds several entries; their conditions need not be identical. Equal values may be shown once. Entries after “also recorded” stand apart in the source; their conditions may differ. Read-outs that look alike come from different tables or passages of the source.

Key:
[1] = Acute toxicity by oral route in mice (LD50); assay type: in vivo; conditions: mouse, in vivo, gummy suspension
Description: (§1) The study of the acute toxicity of the stabilizers listed below was carried out by determining the dose of substance which provoked the death of 50% of the treated animals (LD50). A gummy suspension of the substance under study was administered by oral route to groups of at least ten mice and the following results were observed: […]

[2] = tested on: mice; test: Acute toxicity by oral route in mice (LD50); assay type: in vivo; conditions: LD50 study
Description: as §1

[3] = Static thermostability of stabilized resin, GARDNER Scale Comparator, Compound B; conditions: 210° C
Description: (§2) The stabilizing power of the substances of the invention was studied from two points of view:
(§3) These studies were performed with six different formulae of vinyl resins (hereinafter referred to as Compounds).
(§4) The different compounds were mixed and calendered in a mixer of which the cylinders were heated to 160° C. The rigid sheets so obtained were then heated in an oven to a temperature between 180° C and 215° C, until incipient carbonization.
(§5) A stove with rotating drums, ventilated and equipped with a thermostat was used for this operation. In the trials described hereunder, the behaviour of a sheet containing the stabilizer to be tested was compared to that of a sheet of the same formula but containing 2-phenyl-indole as stabilizer.
(§6) 1. The colouration of the sheets, of which samples were removed from the stove at fixed intervals was compared to a standard scale of colouration, known as the GARDNER Scale, and expressed in terms of the reference figures of the GARDNER Scale.
(§7) Comparisons were made with a GARDNER Scale Comparator which contains 18 filters of coloured glass and which offers the possibility of observing by transparency and in a limited field of view both the sheet and the reference filters.
Compound B was used and the sheets obtained presented the following characteristics: […]

[4] = Static thermostability of stabilized resin, GARDNER Scale Comparator, Compound A; conditions: 185° C
Description: as §2, §3, §4, §5, §6, §7

[5] = Static thermostability of stabilized resin, simplified method (GARDNER sub-scale), Compound A; conditions: 210° C
Description: as §2, §3, §4, §5
(§8) 2. It is also possible to use a simplified method which is more rapid and with which valid results are also obtained: a reference scale is drawn up with sheets of thermally treated polyvinyl chloride, of which the colourations have been definitely determined in GARDNER degrees as above. A GARDNER sub-scale is thus obtained in polyvinyl chloride sheets which can be directly compared to the sheets to be tested without using the comparator.
Finally, trials were carried out with Stabilizers 15, 16 and 17 and with 2-phenyl-indole. Compound A was used and the temperature was 210° C.

[6] = Static thermostability of stabilized resin, simplified method (GARDNER sub-scale), Compound D; conditions: 185° C
Description: as §2, §3, §4, §5, §8

[7] = Static thermostability of stabilized resin, simplified method (GARDNER sub-scale), Compound E; conditions: 185° C
Description: as §2, §3, §4, §5, §8

[8] = Static thermostability of stabilized resin, simplified method (GARDNER sub-scale), Compound C; conditions: 210° C
Description: as §2, §3, §4, §5, §8

[9] = Sticking of the stabilized material; conditions: cylinders at 210° C, 3 min mixing / 3 min rest
Description: Compounds Nos. 609 and 675 were placed in a mixer of the type previously used for studying static thermostability with cylinders at a fixed temperature of 210° C.
They were submitted to alternate periods of 3 minutes of mixing and 3 minutes of rest.

[10] = Sublimation of the stabilizers; assay type: physicochemical; conditions: 120° C, cold wall 13° C, 15 Torr, 150 min
Excerpt: A sample of the substance to be tested was introduced into a test tube and heated under reduced pressure. The fraction of sublimated substance was recovered on a mobile cold wall.
After a certain period of time, the sublimated substance was weighed and the result expressed as a percentage of the weight of the starting-material.
The results obtained can only be of relative value, enabling a comparison to be made between two products tested under the same conditions.
Operating conditions (chosen at random).
Temperature of heating 120° C
Temperature of the cold wall
Duration of heating 150 minutes

[11] = assay type: physicochemical
Excerpt: The thermostability of Stabilizer 8 and that of 2-phenyl-indole were studied by differential thermoanalysis and by thermogravimetric analysis. […] Diagrams were made out for 2-phenyl-indole (i) and Compound 8 (ii) and enabled the following conclusions to be drawn: […]

[12] = Thermostability of the stabilizers: thermogravimetric analysis; assay type: physicochemical; conditions: 80° C/hour, under air
Description: The thermostability of Stabilizer 8 and that of 2-phenyl-indole were studied by differential thermoanalysis and by thermogravimetric analysis.
This analysis necessitated two series of trials carried out under air and under inert gas (Argon) in order to eliminate any possible effect of oxygen. The results obtained were identical.
The temperature increase rate was 80° C/hour. Thermograms were drawn up under air for both 2-phenyl-indole (i) and for Stabilizer 8 (ii) and enabled the following conclusion to be drawn: […]

[13] = tested on: mice; assay type: in vivo; conditions: mouse, in vivo, po
Description: as §1

[14] = Extractibility of the stabilizer from Compound A containing Stabilizer 16
Description: This study was carried out in accordance with the requirements of the Food and Drug Administration (U.S.A.).
The extractions were performed in semi-rigid bottles, prepared with Compounds Nos. 609 and 675, and with the following solvents: water, an aqueous solution of acetic acid (3%), ethanol-water 50/50, heptane.
The ratio of the volume of solvent to the surface of plastic material exposed to extraction was about 1 cm^2 to […] of solvent, taking into account the geometric characteristics of the bottles.
The quantity of stabilizer extracted was determined by colorimetric assay using p-dimethylaminobenzaldehyde, in accordance with the method described in Analytical Chemistry 36, 425-26 (1964).
The amounts of stabilizer assayed are expressed in μg per liter of extraction solvent or, which is the same, per 1000 cm^2 of surface submitted to extraction.
The same trials were carried out with Compound A containing 2-(4'-dodecylthio-phenyl)-indole (Stabilizer 16) as stabilizer and the following results were obtained: […]

c1ccc(-c2cc3ccccc3[nH]2)cc1 [2-phenyl-indole]
LD50 [1]: > 3000 mg/kg
Toxic symptoms [2]: none
Colouration of sheet (GARDNER Scale) ([3]; 0 min): 1 GARDNER degrees
Colouration of sheet (GARDNER Scale) ([3]; 3 min): 1 GARDNER degrees
Colouration of sheet (GARDNER Scale) ([3]; 6 min): 2 GARDNER degrees
Colouration of sheet (GARDNER Scale) ([3]; 9 min): 3 GARDNER degrees
Colouration of sheet (GARDNER Scale) ([3]; 12 min): 4 GARDNER degrees
Colouration of sheet (GARDNER Scale) ([3]; 15 min): 6 GARDNER degrees
Colouration of sheet (GARDNER Scale) ([3]; 18 min): 8 GARDNER degrees
Colouration of sheet (GARDNER Scale) ([3]; 21 min): > 18 GARDNER degrees
Thickness of sheet ([3]; after 21 min): 0.9 mm
State of sheet ([3]; after 24 min): burnt
Colouration of sheet (GARDNER Scale) ([4]; 0 min): 1 GARDNER degrees
Colouration of sheet (GARDNER Scale) ([4]; 6 min): 1 GARDNER degrees
Colouration of sheet (GARDNER Scale) ([4]; 12 min): 3 GARDNER degrees
Colouration of sheet (GARDNER Scale) ([4]; 18 min): 5 GARDNER degrees
Colouration of sheet (GARDNER Scale) ([4]; 24 min): 11 GARDNER degrees
Colouration of sheet (GARDNER Scale) ([4]; 30 min): 12 GARDNER degrees
Colouration of sheet (GARDNER Scale) ([4]; 36 min): 14 GARDNER degrees
Colouration of sheet (GARDNER Scale) ([4]; 42 min): 14 GARDNER degrees
Colouration of sheet (GARDNER Scale) ([4]; 48 min): 14 GARDNER degrees
Colouration of sheet (GARDNER Scale) ([4]; 54 min): burnt
Colouration of sheet (GARDNER sub-scale) ([5]; 0 min): 1 GARDNER degrees
Colouration of sheet (GARDNER sub-scale) ([5]; 3 min): 2 GARDNER degrees and 1 GARDNER degrees
Colouration of sheet (GARDNER sub-scale) ([5]; 3 min, listed as 2-phenyl-inodle): 2 GARDNER degrees
Colouration of sheet (GARDNER sub-scale) ([5]; 6 min): 2.5 GARDNER degrees and 2 GARDNER degrees and 3 GARDNER degrees
Colouration of sheet (GARDNER sub-scale) ([5]; 6 min, listed as 2-phenyl-inodle): 3 GARDNER degrees
Colouration of sheet (GARDNER sub-scale) ([5]; 9 min, listed as 2-phenyl-inodle): 8 GARDNER degrees
Colouration of sheet (GARDNER sub-scale) ([5]; 12 min): 11 GARDNER degrees and 10 GARDNER degrees and 9 GARDNER degrees
Colouration of sheet (GARDNER sub-scale) ([5]; 12 min, listed as 2-phenyl-inodle): 11 GARDNER degrees
Colouration of sheet (GARDNER sub-scale) ([5]; 15 min): 13 GARDNER degrees and 12 GARDNER degrees and 14 GARDNER degrees
Colouration of sheet (GARDNER sub-scale) ([5]; 15 min, listed as 2-phenyl-inodle): 12 GARDNER degrees
Colouration of sheet (GARDNER sub-scale) ([5]; 18 min): burnt
Burning of sheet ([5]; at 15 min): burnt along its edges; also recorded: badly burnt
Colouration of sheet (GARDNER sub-scale) ([6]; 0 min): 1 GARDNER degrees
Colouration of sheet (GARDNER sub-scale) ([6]; 10 min): 2 GARDNER degrees
Colouration of sheet (GARDNER sub-scale) ([6]; 20 min): > 2 GARDNER degrees
Colouration of sheet (GARDNER sub-scale) ([6]; 30 min): 3 GARDNER degrees
Colouration of sheet (GARDNER sub-scale) ([7]; 0 min): < 1 GARDNER degrees
Colouration of sheet (GARDNER sub-scale) ([7]; 10 min): 1 GARDNER degrees
Colouration of sheet (GARDNER sub-scale) ([7]; 20 min): 2 GARDNER degrees
Colouration of sheet (GARDNER sub-scale) ([7]; 30 min): 3 GARDNER degrees
Colouration of sheet (GARDNER sub-scale) ([8]; 0 min): 1 GARDNER degrees
Colouration of sheet (GARDNER sub-scale) ([8]; 10 min): 1.5 GARDNER degrees
Colouration of sheet (GARDNER sub-scale) ([8]; 20 min): 2 GARDNER degrees
Colouration of sheet (GARDNER sub-scale) ([8]; 30 min): < 3 GARDNER degrees
Colouration of sheet (GARDNER sub-scale) ([8]; 40 min): 3 GARDNER degrees
Colouration of sheet (GARDNER sub-scale) ([8]; 50 min): > 3 GARDNER degrees
Colouration of sheet (GARDNER sub-scale) ([8]; 55 min): 3.5 GARDNER degrees
Colouration of sheet (GARDNER sub-scale) ([8]; 60 min): > 4 GARDNER degrees
Sticking of the stabilized material [9]: comparable
Percentage of sublimated substance [10]: 26.9%
Temperature from which it particularly sublimates (melting point) [11]: 185-190 °C
Loss of water at 100° C ([11]; 2° C/minute): no loss of water at 100 °C
Sublimation temperature ([11]; 2° C/minute): 140 °C
Decomposition residue at 210° C [12]: a yellowish residue was, in fact, obtained at 210 °C which constitutes proof of decomposition

CCCCCCCCCCCCSc1ccc(-c2cc3ccccc3[nH]2)cc1 [Stabilizer 16, 2-(4'-n-dodecylthio-phenyl)-indole]
LDO (maximal dose which does not provoke any death) [13]: > 3000 mg/kg
Toxic symptoms [13]: none
Static thermostability compared with 2-phenyl-indole [5]: very rapidly found to be superior to 2-phenyl-indole
Colouration of sheet (GARDNER sub-scale) ([5]; 0 min): 1 GARDNER degrees
Colouration of sheet (GARDNER sub-scale) ([5]; 3 min): 1 GARDNER degrees
Colouration of sheet (GARDNER sub-scale) ([5]; 6 min): 2 GARDNER degrees
Colouration of sheet (GARDNER sub-scale) ([5]; 9 min): 5 GARDNER degrees
Colouration of sheet (GARDNER sub-scale) ([5]; 12 min): 10 GARDNER degrees
Colouration of sheet (GARDNER sub-scale) ([5]; 15 min): 13 GARDNER degrees
Colouration of sheet (GARDNER sub-scale) ([5]; 18 min): burnt
Amount of stabilizer extracted ([14]; 3% aqueous acetic acid, 20 days): < 3 μg per liter
Amount of stabilizer extracted ([14]; aqueous ethanol 50/50, 9 days): < 10 μg per liter
Amount of stabilizer extracted ([14]; heptane, 48 hours): 175 μg per liter
Amount of stabilizer extracted ([14]; water, 10 days): < 3 μg per liter
